In ChEMBL document CHEMBL1129843, “Synthesis of a pyrimido[4,5-b]azepine analog of 5,10-dideaza-5,6,7,8-tetrahydrofolic acid (DDATHF)” (Bioorg Med Chem Lett, 1997):

Key:
[1] = biological target: T1, Folylpolyglutamate synthase, mitochondrial (Homo sapiens) (UniProt Q05932); test: Ratio of Vmax to Km value and expressed as k'; details: Sus scrofa
T1 sequence (whole entry): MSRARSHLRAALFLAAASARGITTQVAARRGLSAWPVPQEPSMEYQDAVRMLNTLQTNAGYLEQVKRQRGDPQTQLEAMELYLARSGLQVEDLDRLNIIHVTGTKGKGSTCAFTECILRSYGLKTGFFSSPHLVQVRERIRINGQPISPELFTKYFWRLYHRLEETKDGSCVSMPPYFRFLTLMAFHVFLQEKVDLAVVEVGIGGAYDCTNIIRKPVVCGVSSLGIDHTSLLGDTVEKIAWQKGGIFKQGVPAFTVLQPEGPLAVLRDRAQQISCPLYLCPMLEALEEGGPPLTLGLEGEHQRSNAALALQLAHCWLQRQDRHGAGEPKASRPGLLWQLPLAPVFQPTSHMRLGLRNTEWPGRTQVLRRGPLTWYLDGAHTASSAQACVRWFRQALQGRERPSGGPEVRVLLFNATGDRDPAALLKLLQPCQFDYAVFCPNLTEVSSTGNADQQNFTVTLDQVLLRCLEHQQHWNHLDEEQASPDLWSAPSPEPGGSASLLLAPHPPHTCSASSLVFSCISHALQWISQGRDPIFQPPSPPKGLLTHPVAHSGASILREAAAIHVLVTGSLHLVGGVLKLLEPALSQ

[2] = biological target: T2, Trifunctional purine biosynthetic protein adenosine-3 (Mus musculus, UniProt Q64737); test: Tested in vitro for its inhibition of trifunctional glycinamide ribonucleotide formyltransferase (GARFT) isolated from murine L1210 leukemia cells
T2 sequence (Q64737 whole entry): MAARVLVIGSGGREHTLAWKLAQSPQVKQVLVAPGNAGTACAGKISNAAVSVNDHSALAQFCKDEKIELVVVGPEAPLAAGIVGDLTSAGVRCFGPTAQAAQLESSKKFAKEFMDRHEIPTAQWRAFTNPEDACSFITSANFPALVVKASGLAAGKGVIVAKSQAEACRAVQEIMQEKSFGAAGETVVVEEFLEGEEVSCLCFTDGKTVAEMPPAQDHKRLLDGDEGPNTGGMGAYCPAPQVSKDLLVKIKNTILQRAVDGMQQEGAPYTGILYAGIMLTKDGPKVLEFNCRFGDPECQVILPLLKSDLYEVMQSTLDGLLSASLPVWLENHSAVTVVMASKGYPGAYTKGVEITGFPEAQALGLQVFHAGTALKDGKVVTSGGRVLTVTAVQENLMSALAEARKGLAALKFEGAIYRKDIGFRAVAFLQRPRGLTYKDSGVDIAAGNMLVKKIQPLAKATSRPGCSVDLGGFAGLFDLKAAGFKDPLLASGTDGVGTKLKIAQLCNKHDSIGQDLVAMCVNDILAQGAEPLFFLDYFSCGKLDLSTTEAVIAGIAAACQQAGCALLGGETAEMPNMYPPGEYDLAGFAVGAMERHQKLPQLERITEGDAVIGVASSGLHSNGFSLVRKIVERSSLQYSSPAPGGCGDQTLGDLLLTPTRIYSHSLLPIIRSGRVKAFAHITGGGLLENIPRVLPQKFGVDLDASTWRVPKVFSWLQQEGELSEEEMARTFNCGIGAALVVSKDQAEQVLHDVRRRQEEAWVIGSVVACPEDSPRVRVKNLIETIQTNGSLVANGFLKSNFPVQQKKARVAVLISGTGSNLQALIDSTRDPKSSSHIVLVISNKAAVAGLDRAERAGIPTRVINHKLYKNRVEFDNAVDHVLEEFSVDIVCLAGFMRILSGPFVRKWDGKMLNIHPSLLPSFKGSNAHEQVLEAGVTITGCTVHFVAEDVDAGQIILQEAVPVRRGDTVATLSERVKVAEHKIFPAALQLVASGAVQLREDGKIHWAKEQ

CCRF-CEM = test: Tested in vitro for cellular cytotoxicity against human T-cell derived lymphoblastic leukemia (CCRF-CEM) cells; format: functional, cell-based
[3] = substrate: Nc1cc2c(c(O)n1)CC(CCc1ccc(C(=O)N[C@@H](CCC(=O)O)C(=O)O)cc1)CCN2; details: Sus scrofa
Description: In vitro Folyl-poly-gamma-glutamyl synthetase (FPGS) affinity

Nc1nc2c(c(=O)[nH]1)C[C@@H](CCc1ccc(C(=O)N[C@@H](CCC(=O)O)C(=O)O)cc1)CN2 [LOMETREXOL]
k' [1]: 59 | Ki [2]: 59.7 nM | IC50 (CCRF-CEM): 15.2 nM

Nc1nc2c(c(=O)[nH]1)C[C@H](CCc1ccc(C(=O)NC(CCC(=O)O)C(=O)O)cc1)CN2 (some centres undefined)
Ki [2]: 120 nM | IC50 (CCRF-CEM): 16 nM

Nc1cc2c(c(O)n1)CC(CCc1ccc(C(=O)N[C@@H](CCC(=O)O)C(=O)O)cc1)CCN2 (some centres undefined)
k' [1]: 20 | Ki [2]: 147 nM | IC50 (CCRF-CEM): 47 nM

B1: Folylpolyglutamate synthase, mitochondrial (Homo sapiens), Q05932 (protein)
chain: T1 sequence (whole entry)
Km [3]: 39 µM
